Test results: PMC12251151, “Understanding Anti-Obesity Potential of Four Porphyrin Compounds by Investigating Pancreatic Lipase Inhibition” (Molecules, 2025)

Legend:
pancreatic lipase (PL) [1] = biological target: T1, pancreatic lipase (PL) (Sus scrofa, UniProt P00591); assay: In vitro stability (temperature and acid-base pre-treatment, then PL inhibition); type: physicochemical, porcine; conditions: 20 min treatment with buffers pH 2.0-10.0
T1 construct: lipase (porcine pancreas); purchased Shanghai Yuanye Co., Ltd., Shanghai, China; host or cells: porcine pancreas
T1 sequence (P00591 1-450): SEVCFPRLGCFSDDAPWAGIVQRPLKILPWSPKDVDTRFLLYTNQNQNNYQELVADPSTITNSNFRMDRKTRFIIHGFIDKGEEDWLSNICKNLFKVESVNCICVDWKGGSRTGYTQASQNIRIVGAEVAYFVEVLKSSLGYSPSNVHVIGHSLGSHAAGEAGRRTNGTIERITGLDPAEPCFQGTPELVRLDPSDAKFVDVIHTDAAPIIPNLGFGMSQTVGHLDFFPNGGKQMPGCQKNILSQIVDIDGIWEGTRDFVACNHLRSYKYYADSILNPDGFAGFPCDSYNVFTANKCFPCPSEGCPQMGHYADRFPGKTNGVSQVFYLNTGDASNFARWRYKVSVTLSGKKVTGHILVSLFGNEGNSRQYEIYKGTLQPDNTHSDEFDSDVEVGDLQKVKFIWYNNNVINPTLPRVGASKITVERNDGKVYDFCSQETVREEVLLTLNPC
Protocol: Temperature stability study. Sample pre-treatment: 1000 μL samples were bathed in water at different temperatures (30, 40, 50, 60, 70, 80, 90, 100 °C) for 20 min, and cooled rapidly.
Acid-base stability study. Sample pre-treatment: 1000 μL samples were treated with buffers of different pH (2.0, 3.0, 4.0, 5.0, 6.0, 7.0, 8.0, 9.0, and 10.0) for 20 min, and then the pH was adjusted back to 6.9–7.3.
PL inhibition experiments were the same as Section 3.2.1. A total of 200 μL pre-treated four porphyrin compounds, 500 μL of 4-nitrophenyl laurate (0.80 mg/mL), 400 μL of Tris-HCl buffer (pH 8.2, 0.1 mol/L), and 300 μL of pancreatic lipase (5 mg/mL) were reacted in an incubator at 37 °C for 2 h. The reaction solution was centrifuged at 12,000 rpm for 5 min, and 200 μL of the supernatant was added to a 96-well plate. The absorbance at 420 nm was measured. The temperature stability range was determined by comparing the inhibition rate of the samples treated at different temperatures. The range of acid-base stability was determined by comparing the changes in inhibition rate.

pancreatic lipase (PL) [2] = biological target: T1, pancreatic lipase (PL); assay: Pancreatic lipase inhibition assay (4-nitrophenyl laurate substrate, absorbance 420 nm); type: biochemical, porcine; conditions: 37 °C, 2 h, pH 8.2 Tris-HCl
Protocol: A total of 250 mg pancreatic lipase was dissolved in 50 mL ultrapure water. After centrifugation at 5000 r/min for 10 min, the supernatant was taken. Then, 80 mg of 4-nitrophenyl laurate was dissolved in 100 mL of 5 mmol/L sodium acetate solution (pH 5.0, containing 1% triton x-100), and dissolved in a boiling water bath. After cooling to room temperature, it was set aside. […] The blank sample solutions were chromatographic methanol solutions containing 2%, 5%, and 10% DMSO.
The activity of PL was determined by referring to the method and making appropriate modifications. A total of 200 μL of different concentrations of four porphyrin compounds, 500 μL of 4-nitrophenyl laurate (0.80 mg/mL), 400 μL of Tris-HCl buffer (pH 8.2, 0.1 mol/L), and 300 μL of pancreatic lipase (5 mg/mL) were reacted in an incubator at 37 °C for 2 h. The reaction solution was centrifuged at 12,000 rpm for 5 min, and 200 μL of the supernatant was added to a 96-well plate.

pancreatic lipase (PL) [3] = biological target: T1, pancreatic lipase (PL); assay: FT-IR spectroscopy secondary structure analysis of PL-porphyrin complex; set-up: species or system porcine; conditions: PL:porphyrin molar ratio 1:2; for β-Antiparallel of PL in complex: PL alone 7.78 ± 0.02; for Random Coil of PL in complex: PL alone 16.30 ± 0.04; for β-Turn of PL in complex: PL alone 23.12 ± 0.03; for α-Helix of PL in complex: PL alone 25.48 ± 0.06; for β-Sheet of PL in complex: PL alone 27.31 ± 0.06
Source text: The effects of four porphyrin compounds on the secondary structure of PL were further studied by FT-IR spectroscopy. The amide I band (1700–1600 cm^−1, mainly C=O stretching) and the amide II band (1600–1500 cm^−1, mainly C-N stretching) are important spectral bands for studying the secondary structure of proteins. Because the regions of amide I band located at 1649–1660, 1615–1637, 1661–1680, 1638–1648, and 1681–1692 cm^−1 after curve fitting represent α-helix, β-sheet, β-turn, random coil and β-antiparallel, respectively, and the signal intensity is high, it is more widely evaluated than the amide II band.
The pancreatic lipase-porphyrin compound solution with a molar ratio of 1:2 was placed in a freeze-centrifugal concentrator Auto R1-plus (Beijing Jiaimu, Beijing, China). The dried solid samples were obtained and mixed with dried KBr, ground, and pressed into tablets, and then detected by Nicolet IS-50 (ThermoFisher, Waltham, MA, USA) instrument. The scanning range was 400–4000 cm^−1 and the resolution was 4 cm^−1. Peakfit V4.12 software was used to fit the amide I region (1600–1700 cm^−1) of pancreatic lipase.

Row | pH range in which PL inhibitory activity changed little (acid-base stability) (pancreatic lipase (PL) [1]) | IC50 (pancreatic lipase (PL) [2]) | β-Antiparallel of PL in complex (pancreatic lipase (PL) [3]) | Random Coil of PL in complex (pancreatic lipase (PL) [3]) | β-Turn of PL in complex (pancreatic lipase (PL) [3]) | α-Helix of PL in complex (pancreatic lipase (PL) [3]) | β-Sheet of PL in complex (pancreatic lipase (PL) [3]) | Structure (SMILES)
1 | 2.0~10.0 pH | 249 µM | 0.87 ± 0.01% | 23.40 ± 0.06% | 13.51 ± 0.03% | 15.78 ± 0.05% | 46.44 ± 0.13% | O=C([O-])c1ccc(C2=C3C=CC(=N3)C(c3ccc(C(=O)[O-])cc3)=C3C=CC(=N3)C(=c3ccc(=C([O-])[O-])cc3)c3ccc([n-]3)C(c3ccc(C(=O)[O-])cc3)=C3C=CC2=N3)cc1.[67Cu+2].[H+].[H+].[H+].[H+] [Cu-TCPP, Cu (II) meso-Tetra (4-carboxyphenyl) porphine]
2 | 2.0~9.0 pH | 236 µM | 8.26 ± 0.02% | 24.25 ± 0.07% | 18.09 ± 0.04% | 12.81 ± 0.03% | 36.59 ± 0.07% | Nc1ccc(-c2c3nc(c(-c4ccc(N)cc4)c4ccc([nH]4)c(-c4ccc(N)cc4)c4nc(c(-c5ccc(N)cc5)c5ccc2[nH]5)C=C4)C=C3)cc1 [TAPP, 5,10,15,20-Tetrakis (4-aminophenyl) porphyrin]
3 | 2.0~10.0 pH | 100 µM | 4.82 ± 0.01% | 24.70 ± 0.06% | 10.43 ± 0.03% | 22.26 ± 0.08% | 37.79 ± 0.12% | O=C(O)c1ccc(-c2c3nc(c(-c4ccc(C(=O)O)cc4)c4ccc([nH]4)c(-c4ccc(C(=O)O)cc4)c4nc(c(-c5ccc(C(=O)O)cc5)c5ccc2[nH]5)C=C4)C=C3)cc1 [TCPP, meso-Tetra (4-carboxyphenyl) porphine]
4 | 2.0~10.0 pH | 97.5 µM | 8.32 ± 0.01% | 20.38 ± 0.02% | 19.70 ± 0.04% | 13.96 ± 0.04% | 37.64 ± 0.05% | Oc1ccc(-c2c3nc(c(-c4ccc(O)cc4)c4ccc([nH]4)c(-c4ccc(O)cc4)c4nc(c(-c5ccc(O)cc5)c5ccc2[nH]5)C=C4)C=C3)cc1 [THPP, 5,10,15,20-Tetrakis (4-hydroxyphenyl) porphyrin]
